Measured values as given in patent US20220395487A1, “RIG-I INNATE IMMUNE RECEPTOR ANTAGONISTS AND METHODS OF USING SAME” (YALE UNIVERSITY, priority 2019, published 2022).

Experiments:
[1] = biological target: T1, RIG-I (Homo sapiens, UniProt O95786); assay: NADH-coupled ATPase assay; type: biochemical; set-up: The native, full-length protein was expressed and purified using methods adapted from published protocols; SUMO (pET-SUMO vector; captured on Ni-NTA) (N, cleaved yes); made in house; host or cells: Rosetta II(DE3) Escherichia coli
T1 sequence (O95786 1-925): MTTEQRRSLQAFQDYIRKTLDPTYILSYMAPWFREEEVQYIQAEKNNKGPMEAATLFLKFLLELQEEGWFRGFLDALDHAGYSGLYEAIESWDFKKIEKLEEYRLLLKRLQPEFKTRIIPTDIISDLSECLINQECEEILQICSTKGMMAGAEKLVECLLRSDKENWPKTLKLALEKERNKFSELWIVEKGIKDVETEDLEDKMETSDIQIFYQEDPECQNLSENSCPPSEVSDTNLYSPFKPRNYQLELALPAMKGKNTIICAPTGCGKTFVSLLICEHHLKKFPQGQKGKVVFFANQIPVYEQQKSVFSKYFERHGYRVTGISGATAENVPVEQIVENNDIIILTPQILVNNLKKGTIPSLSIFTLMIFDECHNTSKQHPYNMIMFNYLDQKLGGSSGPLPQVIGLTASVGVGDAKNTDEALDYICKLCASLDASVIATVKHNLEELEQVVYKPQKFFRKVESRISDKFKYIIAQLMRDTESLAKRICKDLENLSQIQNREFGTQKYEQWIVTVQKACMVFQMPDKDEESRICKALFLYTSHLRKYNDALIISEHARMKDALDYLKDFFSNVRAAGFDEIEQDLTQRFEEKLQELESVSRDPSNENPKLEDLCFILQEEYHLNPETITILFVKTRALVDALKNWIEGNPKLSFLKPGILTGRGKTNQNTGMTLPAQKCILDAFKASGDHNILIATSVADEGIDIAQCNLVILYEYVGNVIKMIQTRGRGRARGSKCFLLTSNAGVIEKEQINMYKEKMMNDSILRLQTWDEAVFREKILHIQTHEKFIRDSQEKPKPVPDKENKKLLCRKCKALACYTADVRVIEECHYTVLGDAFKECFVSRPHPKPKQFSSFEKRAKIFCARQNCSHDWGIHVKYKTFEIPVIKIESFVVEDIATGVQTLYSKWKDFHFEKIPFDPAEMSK
Procedure: In this case, RIG-I was activated by a well-defined synthetic RNA hairpin duplex (SLR10-OH), which was added to a final concentration of 250 nM. A coupled assay mixture consisting of 1 mM NADH, 100 U/ml lactic dehydrogenase, 500 U/ml pyruvate kinase, 2.5 mM phosphoenol pyruvic acid was added to the sample. A 12-point serial dilution of the compound of interest was added in a DMSO vehicle such that DMSO concentrations were kept at a constant 2% over the entire drug dilution. The final concentration ranges for drug dilutions varied from compound to compound based on the potency of the small molecule in question. The dilutions covered ranges from 0 to as high as 100 μM (see association figures). Samples were incubated for at least 1 hour at RT. Reactions were initiated by the addition of a 1:1 ATP/MgCl2 mix to a final concentration of 5 mM.
The rate of ATP hydrolysis was determined indirectly by monitoring the conversion of NADH to NAD^+ that results in a loss of sample absorbance at 340 nm. Absorbance was measured over a 20 min time course using a sweeping read at 10 second intervals and a gain setting of 120 on a Biotek Synergy H1 Plate Reader. Mean kobs values were extrapolated for each time course and plotted against drug concentration, then fit to Eq. (1) to determine IC50 values. Each point was a based on two trials of three biological replicates with error bars representing the Standard deviation.

[2] = system: A549 cells; assay: qRT-PCR of metabolism and stress marker genes (ACTB, GAPDH, p21, BAX) in A549 cells; type: cell-based, human; settings: p21, BAX by qRT-PCR
Procedure: In the second assay, inhibition of RIG-I that is endogenously expressed in A549 cells was evaluated by monitoring IFN and ISG levels by qRT-PCR. A549 cells were propagated in T75 flasks containing Dulbecco's Modified Eagle Medium, DMEM, (Life Technologies) supplemented with 10% heat-inactivated fetal bovine serum (Hyclone) and Non-Essential Amino Acids (Life Technologies). For the assay, 0.5 ml of cells at 100,000 cells/ml was seeded in 24-well plates. After 24 h, DMEM growth media was replaced with media containing drug, as described above for the IFN induction assay using HEK293T cells. After 30 minutes, the cells were transfected with 1 μg of the synthetic stem-loop RNA (SLR14), using the Lipofectamine 2000 transfection reagent. After 5-6 hours, cells were harvested and total RNA was isolated using E.Z.N.A total RNA isolation kit (Omega Bio-tek), following the manufacturer's instructions. […] Each sample was analyzed in triplicate and normalized to HPRT expression. Gene expression quantification was performed according to the Livak ΔΔCt method.
These experiments were consistent with a target-specific response to the compounds. […] To evaluate interference with cell growth or viability, genes that represent markers of cell metabolism and stress response (ACTB, GAPDH, p21, BAX) were also simultaneously monitored. […]

## CCC1(CC)C(=O)N=C2C1=C(OCc1ccccc1)C(=O)c1ccccc12 [RIG012, 4-Benzyloxy-3,3-diethyl-2H,3H,5H-benzo[g]indole-2,5-dione]
[1]; NADH-coupled ATPase assay, SLR10-OH activated, mean ± standard deviation, 3 measurements, read-out: IC50
  IC50: 710 ± 20 nM
[1]; SAR discussion of Table 1 compounds
  RIG-I ATPase inhibition, result in words: nanomolar IC50 values
[2]
  expression of genes involved in cell viability and metabolism: unaffected
